The values that follow come from patent publication US20140303199A1, “INHIBITORS OF RGS PROTEINS” (priority 2013, published 2014).

One assay concerns the target T1, RGS4(Δ7) mutant (Rattus norvegicus, UniProt P49799, C132A/C148A/C183A/C197A/C204A/C71A/C95A).
T1 construct: fused to the N-terminus of an RGS4 construct containing amino acids 51-205; 10x His tag (N, cleaved yes); TEV protease recognition site (N, cleaved yes); made in house; host or cells: E. coli BL21-DE3 (vector pMALC2H10T)
The assay is described as follows: Malachite green assay counter screen against cysteine-null RGS4(Δ7) mutant. In kind it is biochemical. The conditions noted are these: for IC50: concentration-response; for Inhibition of RGS4(Δ7) mutant (in words): screen hits. From the text: Rat RGS4, sharing 97% sequence identity with human RGS4, and the cysteine to alanine mutant were expressed as fusion proteins of maltose binding protein (MBP), a 10× His tag, and a TEV protease recognition site fused to the N-terminus of an RGS4 construct containing amino acids 51-205, in the vector pMALC2H10T in BL21-DE3 bacteria (Stratagene; Santa Clara, Calif.). The single cysteine-null Δ51-RGS4 construct was generated by site-directed mutagenesis as described previously Expression and purification were performed as described previously. Purified protein was incubated with TEV protease at a molar ratio of 10:1 (fusion protein:TEV protease) overnight at 4° C. The cleaved Δ51-RGS4 was then isolated by purification over an ANX column (GE Healthcare; Fairfield, Conn.) in 50 mM HEPES at pH6.8 and 50 mM NaCl. The flow through, containing the ˜99% Δ51-RGS4 as determined by SDS-PAGE gel, was then collected and concentrated using a YM-10 centrifugal concentrator (Millipore; Billerica, Mass.). The concentration of Δ51-RGS4 was calculated based on the absorbance at 280 nm utilizing a Take-3 plate (Biotek; Winnoski, Vt.) in a Synergy 2 plate reader (Biotek; Winnoski, Vt.).
Stock solutions of each of the 3 components of the developing solution were prepared, which were stable for long-term storage. Malachite solution was prepared by first diluting concentrated sulfuric acid 1:5 in distilled water. Once the solution cooled to 25° C., malachite solution was prepared by dissolving 0.44 g of malachite green oxalate (Alfa Aesar; Ward Hill, Mass.) in 360 mL diluted acid and stored at 25° C. Molybdate solution, containing 7.5% ammonium molybdate tetrahydrate (Alfa Aesar; Ward Hill, Mass.), was prepared in distilled water and stored at 4° C. Tween-20 solution, used to maintain solubility of the phosphate-molybdate-malachite complex, was prepared as 11% (v/v) Tween-20 in distilled water. On the day of use, 2.5 mL molybdate solution and 0.2 mL Tween-20 solution were added to 10 mL of malachite solution and mixed quickly to avoid precipitation of malachite. The final ratio of the Developing Solution (DS) was 50:12.5:1 (malachite:molybdate:Tween-20). The peak absorbance was determined by a 2 nm step wavelength scan, using 50 μM NaH2PO4 at pH 8.0 as the negative control.
Malachite green compound activity and Z-factor analysis conducted in 384-well plates utilized optimized parameters as discerned from the time-course experiments. 10 μL of 4× compound or MGB was dispensed into appropriate wells. For single point assay, 160 μM compound was used, and for dose-response assays a series of ½ log dilutions from 100 μM final to […] final was used. 10 μL of the optimized 4×RGS4 concentration, 0.8 μM in MGB, was dispensed into all wells. After a spin down at 100×g for 1 min, the assay plate was incubated at 25° C. for 30 min. 10 μL of the optimized Gαi concentration, 20 μM in MGB, was dispensed to each well and incubated at 25° C. for 5 min. 10 μL of the optimized 4×GTP, 600 μM in MGB, was then added to the samples. […] The samples were then stamped with 10 μL of DS and incubated for 25 min before reading absorbance at 642 nm.
Initial hits were confirmed by single point malachite green assay at 40 μM compound. […] This control would detect compounds that either interrupt the detected complex or reduce the molybdate resulting in peak shift outside of the desired wavelength. […] Compounds that increased the predicted absorbance were carried through, as they would indicate false negatives in the assay. […]
(The purpose of a counterscreen is to sort out artefacts and off-target activity.)

A further assay concerns the target T2, RGS4(WT) (Rattus norvegicus, UniProt P49799).
T2 sequence (P49799 51-205): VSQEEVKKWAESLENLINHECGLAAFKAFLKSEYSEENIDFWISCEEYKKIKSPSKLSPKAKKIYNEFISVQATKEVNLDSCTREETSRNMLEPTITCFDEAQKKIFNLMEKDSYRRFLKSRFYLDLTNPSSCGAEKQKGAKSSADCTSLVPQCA
The assay is described as follows: Malachite green assay of RGS4-stimulated Gαi GTPase activity. Type of assay: biochemical. The settings on record: for IC50 / Inhibition of RGS4 (in words): malachite green assay; for IC50: RGS4 200 nM final, concentration-response, read-out: IC50 against RGS4(WT); for Inhibition of RGS4 (in words): screen hits; for Mean absorbance at 642 nm, positive control wells: 10 μM final.

Molecules are shown by their SMILES. Where a name gives a salt, the structure may show the parent alone.

T1 sequence (P49799 51-205 C71A/C95A/C132A/C148A/C183A/C197A/C204A limits assumed): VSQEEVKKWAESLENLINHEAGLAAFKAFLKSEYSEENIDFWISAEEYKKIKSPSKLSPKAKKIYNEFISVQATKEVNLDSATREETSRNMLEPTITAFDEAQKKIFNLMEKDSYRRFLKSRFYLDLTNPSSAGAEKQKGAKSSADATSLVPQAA
Experimental for RGS4(WT): Stock solutions of each of the 3 components of the developing solution were prepared, which were stable for long-term storage [19]. Malachite solution was prepared by first diluting concentrated sulfuric acid 1:5 in distilled water. Once the solution cooled to 25° C., malachite solution was prepared by dissolving 0.44 g of malachite green oxalate (Alfa Aesar; Ward Hill, Mass.) in 360 mL diluted acid and stored at 25° C. Molybdate solution, containing 7.5% ammonium molybdate tetrahydrate (Alfa Aesar; Ward Hill, Mass.), was prepared in distilled water and stored at 4° C. Tween-20 solution, used to maintain solubility of the phosphate-molybdate-malachite complex, was prepared as 11% (v/v) Tween-20 in distilled water. On the day of use, 2.5 mL molybdate solution and 0.2 mL Tween-20 solution were added to 10 mL of malachite solution and mixed quickly to avoid precipitation of malachite. The final ratio of the Developing Solution (DS) was 50:12.5:1 (malachite:molybdate:Tween-20). The peak absorbance was determined by a 2 nm step wavelength scan, using 50 μM NaH2PO4 at pH 8.0 as the negative control.
The malachite green assay involved 5 components, with a 1 min spin at 100×g between each addition. For time-course experiments, the first component was 10 μL Malachite Green Assay Buffer (MGB; 50 mM HEPES at pH 7.5, 100 mM NaCl, 5 mM EDTA, 10 mM MgCl2, 0.01% lubrol) into a clear 384-well plate (ThermoFisher Scientific; Waltham, Mass.) using a MultiDrop dispenser (PerkinElmer; Waltham, Mass.). The second component dispensed was 10 μL of a 4× stock of RGS4, typically 200 nM to 1.6 μM with the target final concentration of 50 nM to 400 nM, diluted in MGB. After a 30 min incubation, 10 μL of the third component, 4× stock of Gαi diluted in MGB, was dispensed (typically between 4 μM and 80 μM with a desired final concentration 1 μM to 20 μM). After a minimum of 5 min incubation, 10 μL of the fourth component, 4×GTP diluted in MGB, was added at 10 minute intervals from 1-110 minutes. 4×GTP concentrations varied between 0.2 mM and 2.4 mM, with a target final concentration of 50 μM to 600 μM. To terminate the reaction, 10 μL of DS was added to each well using a Microlab Star liquid handling robot (Hamilton Robotics; Reno, Nev.), to achieve a final ratio 4:1 (sample:developing solution). Following the spin, the plate was incubated for 25 min before being read at 642 nm for absorbance using an EnVision plate reader (PerkinElmer; Waltham, Mass.).
Malachite green compound activity and Z-factor analysis conducted in 384-well plates utilized optimized parameters as discerned from the time-course experiments. 10 μL of 4× compound or MGB was dispensed into appropriate wells. For single point assay, 160 μM compound was used, and for dose-response assays a series of ½ log dilutions from 100 μM final to 316 μM final was used. 10 μL of the optimized 4×RGS4 concentration, 0.8 μM in MGB, was dispensed into all wells. After a spin down at 100×g for 1 min, the assay plate was incubated at 25° C. for 30 min. 10 μL of the optimized Gαi concentration, 20 μM in MGB, was dispensed to each well and incubated at 25° C. for 5 min. 10 μL of the optimized 4×GTP, 600 μM in MGB, was then added to the samples. After spinning the samples down at 100×g for 1 min, the samples were incubated at 25° C. for 75 min. The samples were then stamped with 10 μL of DS and incubated for 25 min before reading absorbance at 642 nm.
1536-well Z-factor analysis and compound library screen were accomplished largely as described for 384-well plates. Initial screen and Z-factor determination was performed in a final concentration of 5.5% dimethylsulfoxide. For 1536-well assays NUNC clear plates were used (ThermoFisher Scientific; Waltham, Mass.). Each component was dispensed as 1.8 μL samples into each well using a FlexDrop (PerkinElmer; Waltham, Mass.).

The IC50 is the concentration that gives 50% inhibition. In the case of `CC1=C(O)C(=O)C=C2C1=CC=C1[C@@]2(C)CC[C@@]2(C)[C@@H]3C[C@](C)(C(=O)O)CC[C@]3(C)CC[C@]12C` [UI-1590, celastrol], the results for the IC50 on RGS4(Δ7) mutant and at RGS4(WT) were 88 µM and 0.724 µM, respectively.

For the compound `C[n+]1cc2c3c(ccc2c2ccc4cc5c(cc4c21)OCO5)OCO3` [UI-5, sanguinarium sulfate], the IC50 was 454 µM on RGS4(Δ7) mutant and 126 µM at RGS4(WT).

Regarding `CC(C)=CCC[C@]1(C)C=Cc2c(O)c3c(c(CC=C(C)C)c2O1)O[C@]12C(=C[C@@H]4C[C@H]1C(C)(C)O[C@@]2(C/C=C(/C)C(=O)O)C4=O)C3=O` [UI-1907, gambogic acid], at RGS4(Δ7) mutant, the 50% inhibitory concentration (IC50) stood at 51 µM and the “Inhibition of RGS4(Δ7) mutant (in words)” value was “inhibitors”. Also, on RGS4(WT), the IC50 stood at 16 µM and the “Inhibition of RGS4 (in words)” value is “inhibitors”.

Turning to `CC(=O)Oc1c2c(c(CC=C(C)C)c3c1C(=O)C1=C[C@@H]4C[C@H]5C(C)(C)OC(C/C=C(\C)C(=O)O)(C4=O)[C@@]15O3)O[C@](C)(CCC=C(C)C)C=C2` [UI-2034, acetyl-isogambogic acid], the “Inhibition of RGS4(Δ7) mutant (in words)” value at RGS4(Δ7) mutant was “inhibitors”. In addition, at RGS4(WT), the “Inhibition of RGS4 (in words)” value is listed as “inhibitors”.

Take `Cc1ccc(-n2sc(=O)n(Cc3ccc(F)cc3)c2=O)cc1` [CCG-50014, reference compound]: the “Mean absorbance at 642 nm, positive control wells” value at RGS4(WT) (384-well plate, 192 wells, negative control mean 1.74) is 0.92; at RGS4(WT) (1536-well plate, 5.5% DMSO, 128 wells, negative control mean 0.67), 0.30.
